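Step 1: Grow cells in 96-well plates. Step 2: Expose to compound for 48 hours at 5 concentrations. Step 3: Interpolate endpoints linearly; if unreached, use highest concentration. GI50 is the concentration that inhibits growth by half.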 Active and inactive are the calls of the source. Cut-off read from the data, not from the text of the source: active = GI50 up to about 1.1 µM and inactive = higher. Residues, ends and D or L forms follow the SMILES beside them. *: point of attachment. X38 = O=C(c1ccc(-c2ccc(Cl)cc2Cl)o1)*
What was measured:
Experiment in all cases: NCI tumour cell line growth inhibition, 48 h
[1] = system: BT-549
[2] = system: SK-MEL-2
[3] = system: U-251
[4] = system: 786-0
[5] = system: OVCAR-8
[6] = system: M14
[7] = system: COLO 205
[8] = system: SNB-19
[9] = system: A549
[10] = system: MOLT-4
[11] = system: SK-MEL-5
[12] = system: MDA-MB-231
[13] = system: TK-10
[14] = system: K562
[15] = system: NCI/ADR-RES
[16] = system: LOX IMVI
[17] = system: MCF7
[18] = system: UACC-257
[19] = system: MDA-MB-435
[20] = system: OVCAR-3

Compound | GI50 [1] | GI50 [2] | GI50 [3] | GI50 [4] | GI50 [5] | GI50 [6] | GI50 [7] | GI50 [8] | GI50 [9] | GI50 [10] | GI50 [11] | GI50 [12] | GI50 [13] | GI50 [14] | GI50 [15] | GI50 [16] | GI50 [17] | GI50 [18] | GI50 [19] | GI50 [20]
COc1cc(/C=C/c2nc(N)nnc2C)cc(OC)c1OC | 20.5 µM (inactive) | > 37.9 µM (inactive) | 18.4 µM (inactive) | 21.5 µM (inactive) | 13 µM (inactive) | 33.3 µM (inactive) | 10.3 µM (inactive) | 23.4 µM (inactive) | 20.3 µM (inactive) | 38.8 µM (inactive) | 14.1 µM (inactive) | > 84.1 µM (inactive) | > 43.8 µM (inactive) | 15.5 µM (inactive) | 11.2 µM (inactive) | 7.31 µM (inactive) | 4.8 µM (inactive) | 37.7 µM (inactive) | 9.33 µM (inactive) | 
Cn1ncc2[nH]cnc2c1=S | > 100 µM (inactive) | > 100 µM (inactive) | > 100 µM (inactive) | > 100 µM (inactive) | > 100 µM (inactive) | > 100 µM (inactive) | 47.5 µM (inactive) | > 100 µM (inactive) | > 100 µM (inactive) | 43.8 µM (inactive) | 82.4 µM (inactive) | > 100 µM (inactive) | > 100 µM (inactive) | 50.7 µM (inactive) | > 100 µM (inactive) |  | 79.3 µM (inactive) | > 100 µM (inactive) | > 100 µM (inactive) | > 100 µM (inactive)
CCN(CC)/N=N/c1c(C(N)=O)n[nH]c1C | 11.1 µM (inactive) | > 100 µM (inactive) | 59 µM (inactive) | 29.6 µM (inactive) | 49.4 µM (inactive) | > 100 µM (inactive) | 52.5 µM (inactive) | 77.1 µM (inactive) | 69 µM (inactive) |  | 33.7 µM (inactive) | > 100 µM (inactive) | > 100 µM (inactive) |  | 48.5 µM (inactive) | 28.6 µM (inactive) | 30.5 µM (inactive) | > 100 µM (inactive) | 77.4 µM (inactive) | > 100 µM (inactive)
Cc1ccc2c(O)cc(-c3ccsc3)nc2n1 | 4.46 µM (inactive) |  | 4.65 µM (inactive) | 4.58 µM (inactive) | 4.06 µM (inactive) | 3.21 µM (inactive) | 3.21 µM (inactive) | 6.59 µM (inactive) | 5.24 µM (inactive) | 3.56 µM (inactive) | 2.71 µM (inactive) | 11.5 µM (inactive) | 26.5 µM (inactive) | 2.9 µM (inactive) | 2.29 µM (inactive) | 3.62 µM (inactive) | 3.08 µM (inactive) | 16.5 µM (inactive) | 0.597 µM (active) | 6.46 µM (inactive)
COC(=O)C(CC(C)C)NC(=O)C(Cc1ccccc1)NC(=O)C1CCCN1C(=O)C(CO)NC(=O)c1ccc(-c2ccc(Cl)cc2Cl)o1 (configuration not stated) (X38-SPFL-OMe; configuration not given here) | 25.6 µM (inactive) | 16.9 µM (inactive) | 21.4 µM (inactive) | 25.1 µM (inactive) | 36.4 µM (inactive) | 19.9 µM (inactive) | 16 µM (inactive) | 21.9 µM (inactive) | 26.1 µM (inactive) | 22.2 µM (inactive) | 17.3 µM (inactive) | 15.5 µM (inactive) | 24.8 µM (inactive) | 27.8 µM (inactive) | 28.8 µM (inactive) | 21.8 µM (inactive) | 27.5 µM (inactive) | 20.2 µM (inactive) | 28.3 µM (inactive) | 
CO[C@H]1[C@H](O)[C@H](O[C@H]2CC[C@@]3(C)[C@H](CC[C@@H]4[C@@H]3CC[C@]3(C)[C@@H](C5=CC(=O)OC5)CC[C@]43O)C2)O[C@@H](C)[C@@H]1O [NERIIFOLIN] | 0.000429 µM (active) | 0.00117 µM (active) | 0.00132 µM (active) | 0.000439 µM (active) | 0.00108 µM (active) | 0.00139 µM (active) | 0.0018 µM (active) | 0.00094 µM (active) | 0.000379 µM (active) | 0.000377 µM (active) | 0.000838 µM (active) | 0.00165 µM (active) | 0.000859 µM (active) |  | 0.000546 µM (active) | 0.000755 µM (active) | 0.00076 µM (active) | 0.00167 µM (active) | < 0.0001 µM (active) | 0.000515 µM (active)
O=C1NC(=O)[C@@]2(CC[C@@H](O)C2)c2ccncc21 [SESBANINE] | > 100 µM (inactive) | > 100 µM (inactive) | > 100 µM (inactive) | > 100 µM (inactive) | > 100 µM (inactive) | > 100 µM (inactive) | > 100 µM (inactive) | > 100 µM (inactive) | > 100 µM (inactive) | > 100 µM (inactive) | > 100 µM (inactive) | > 100 µM (inactive) | > 100 µM (inactive) | > 100 µM (inactive) | > 100 µM (inactive) | > 100 µM (inactive) | > 100 µM (inactive) | > 100 µM (inactive) | > 100 µM (inactive) | 

Reference: ChEMBL document CHEMBL1201862, “PubChem BioAssay data set” (2004)
